Experiment [1] concerns PSN-1 cells. The experiment is described as follows: Cell viability assay (CellTiter Glo), PSN-1. Type of experiment: cell-based. The conditions noted are these: PSN-1 versus A549. The procedure: (§1) Cell viability assay was performed to assess the potency of the ferroptosis inducer compounds in various cancer cell lines with K-Ras mutations. […] A series of 9 different concentrations of compound stocks (500×) were created by 3-fold serial dilution in DMSO. […] After 96 hours of incubation, 50 μL of CellTiter Glo reagent (Promega) was added to each well and luminescence was measured after 10 minutes using EnVision (PerkinElmer). […] IC50, relative IC50, or % of top inhibition was calculated. Next, RSL3, ML210, Erastin, and Auranofin were tested on additional K-RAS mutant pancreatic cell lines (Panc1, Panc6.03, Panc2.13, PSN-1, and Capan-1) in Table 1.
Background: Cellular ATP, detected with luciferase, serves as a proxy for viable cell number.

Experiment [2] concerns A549 cells. The experiment is described as follows: Combination proliferation assay with PKC activator, A549. Type of experiment: cell-based. The conditions noted are these: inducer at concentration with minimal or no effect alone. The procedure:
(§2) Cell viability assay was performed to assess the potency of the ferroptosis inducer compounds in various cancer cell lines with K-Ras mutations. Cells at a density of 1,000-10,000 cells/well were seeded in 96-well plates and incubated at 37° C. overnight. A series of 9 different concentrations of compound stocks (500×) were created by 3-fold serial dilution in DMSO. These compounds were further diluted in culture media and then added to cells so that the final DMSO concentration was equal to 0.25% or less. After 96 hours of incubation, 50 μL of CellTiter Glo reagent (Promega) was added to each well and luminescence was measured after 10 minutes using EnVision (PerkinElmer). K101A (a PKC activator) was used as the reference compound titrated from top concentration of 30 μM. All compounds were tested initially from 30 μM as the top concentration in duplicates (range of 4.6 nM-30 μM). […] Data was analyzed using XL-fit software (ID Business Solutions Ltd.). IC50, relative IC50, or % of top inhibition was calculated.
(§3) Therefore, whether PKC activators synergize or antagonize with ferroptosis inducers can be tested empirically.

Experiment [3] deals with KP-4 cells. In words: Effect of ferroptosis or apoptosis inhibitor on RSL3- or Erastin-induced cell death, KP-4. The conditions noted are these: Homo sapiens, KP-4, read-out: reduction of cell viability compared to DMSO. The procedure:
as §2
Ferroptosis inhibitors include: Ferrostatin-1 and Liproxstatin-1, inhibitors of ROS accumulation; Deferoxamine, an iron chelator; and PD146176, a 15-lipoxygenase inhibitor (see, e.g., Hofman et al., 2016, J Med Chem. March 10; 59(5):2041-53; Yang et al., 2016 Cell 26(3):165-176). The apoptosis inhibitor chosen was ZVAD (see, e.g. Wu et al., 2011, Cell Death and Differentiation 18:26-37). Ferroptosis inhibitors and ZVAD were first titrated as a single agent as shown in Example 1.

Another experiment concerns Panc2.13 cells. In words: Combination proliferation assay with PKC activator, Panc2.13. In kind it is cell-based. As to the method:
as §2, §3

Experiment [4] relates to B cell lymphoma cell lines Mino and Namalwa. In words: Cell viability assay, B cell lymphoma cell lines compared with A549. Type of experiment: cell-based. The conditions noted are these: Mino and Namalwa versus A549. As to the method:
Cell viability assay was performed to assess the potency of the ferroptosis inducer compounds in various cancer cell lines with K-Ras mutations. […] A series of 9 different concentrations of compound stocks (500×) were created by 3-fold serial dilution in DMSO. […] After 96 hours of incubation, 50 μL of CellTiter Glo reagent (Promega) was added to each well and luminescence was measured after 10 minutes using EnVision (PerkinElmer). […] […] IC50, relative IC50, or % of top inhibition was calculated.

Experiment [5] concerns A549 cells. The experiment is described as follows: Effect of ferroptosis or apoptosis inhibitor on RSL3- or Erastin-induced cell death, A549. The conditions noted are these: Homo sapiens, A549, read-out: reduction of cell viability compared to DMSO. The procedure: as §2
Ferroptosis inhibitors include: Ferrostatin-1 and Liproxstatin-1, inhibitors of ROS accumulation; Deferoxamine, an iron chelator; and PD146176, a 15-lipoxygenase inhibitor (see, e.g., Hofman et al., 2016, J Med Chem. March 10; 59(5):2041-53; Yang et al., 2016 Cell 26(3):165-176). […]

The test system of experiment [6] is PSN-1 cells. The experiment is described as follows: Combination proliferation assay with PKC activator, PSN-1. Type of experiment: cell-based. As to the method:
as §2, §3

The test system of experiment [7] is Panc1 cells. The experiment is described as follows: Combination proliferation assay with PKC activator, Panc1. In kind it is cell-based. The conditions noted are these: inducer up to 1 μM. As to the method: as §2, §3
A further experiment relates to Capan-1 cells. In words: Combination proliferation assay with PKC activator, Capan-1. In kind it is cell-based. As to the method: as §2, §3
Experiment [8] has as its system KP-4 cells. The experiment is described as follows: Combination proliferation assay with PKC activator, KP-4. In kind it is cell-based. As to the method:
as §2, §3

Experiment [9] has as its system Panc1 cells. In words: Cell viability assay (CellTiter Glo), Panc1. In kind it is cell-based. The conditions noted are these: Panc1 versus A549. The procedure:
as §1

In the case of `CCOc1ccccc1-n1c(C(C)N2CCN(C(=O)COc3ccc(Cl)cc3)CC2)nc2ccccc2c1=O` (stereo not drawn) [Erastin], the “selectivity/sensitivity for induced cell death in comparison to A549” value in the experiment on PSN-1 cells [1] is reported as roughly 2 fold. Moreover, the “synergy with K101A or K102 to block proliferation” value in the experiment with A549 cells [2] is listed as “synergized strongly”; in the experiment on Panc2.13 cells, “synergized”; in the experiment on Panc1 cells [7], “No synergistic effects”; with Capan-1 cells, “did not synergize”. Further, the cytotoxicity at 1 µM in the experiment with KP-4 cells [3] was greater than 90%. Moreover, in the experiment with Panc2.13 cells, the “effect on the potency of K101A or K102” value is reported as “only increased the potency”. For the same molecule, in experiment [4], the “sensitivity to induced cell death in comparison to A549” value was “not more sensitive”. Further, the cytotoxicity at 10 µM in the experiment on A549 cells [5] lay within 50 to 60%. The “synergy with K101A (PKC activators) to block proliferation” value with PSN-1 cells [6] is on record as “synergized”. In the experiment with KP-4 cells [8], the “synergy when combined with K101A or K102” value is “only additive effects”. The “selectivity for induced cell death in comparison to A549” value with Panc1 cells [9] is roughly 2 fold.

The values above are taken from patent US20200138829A1, “METHODS OF CANCER TREATMENT” (Ferro Therapeutics, Inc., priority 2017, published 2020).
